Test results as given in US20210369678A1, “BENZIMIDAZOLE DERIVATIVE FOR USE IN THE TREATMENT OF INFLAMMATORY DISORDERS” (Akebia Therapeutics, Inc., priority 2018, published 2021).
Entries after “also recorded” stand apart in the source; their conditions may differ. Like-named read-outs stand apart in the source and are kept apart here.

Tests used:
[1] = IV/p.o. pharmacokinetic study in monkey; type: in vivo, male cynomolgus monkeys
Method: (§1) Intravenous and oral (IV/p.o.) pharmacokinetic (PK) studies in rat, dog and monkey were carried out to facilitate the projection of human PK for Compound 1.
(§2) In the rat studies, Compound 1 was dosed both as a suspension (in 0.5% HPMC) and as a solution in 20% HPPCD. Experiments in the dog and monkey were dosed as a suspension in 0.5% HPMC.

systemic EPO = assay: Systemic EPO response after oral and intraperitoneal dosing (MSD assay); type: in vivo, male Balb/c mice; settings: 6 h post dosing
Method: (§3) The effect of both oral (p.o.) and intraperitoneal (i.p.) doses of Compound 1 on systemic EPO in male Balb/c mice was investigated, along with plasma drug concentrations at 1 h and 6 h post dosing. Systemic EPO was measured 6 h post dosing of Compound 1 using a commercially-available MSD assay system, correlated to standard curves. Plasma drug concentrations were quantitated by LC MS/MS. […] FIG. 1 depicts the EPO response to oral (p.o.) and intraperitoneal (i.p.) doses of Compound 1 at 6 h in BalbC mice.

DSS-induced colitis = assay: Dextran sulfate sodium (DSS)-induced colitis model; type: in vivo, mice
Method: Colitis was induced in 121 mice by exposure to 3% DSS-treated drinking water from Day 0 to Day 5. Animals were dosed via oral gavage (p.o.) with Compound 1, 6-thioguanine, or vehicle control once a day (q.d.) from Day 6 to 19. Video endoscopy was performed on days 10, 14, and 19. At these time points, colitis severity was assessed in all animals using video endoscopy, where images were taken and colitis severity scored by a blinded observer. During each endoscopy procedure, stool consistency was recorded using a 0-4 scale and an image from each animal was captured at the most severe region of disease that was identified. Following endoscopy on Day 19, all animals for the efficacy component were euthanized with CO2 inhalation. Blood was collected via cardiac puncture and placed in K2EDTA tubes for preparation of plasma. A small whole blood sample was retained for the assessment of hemoglobin and hematocrit while the remaining sample was processed to plasma, then split into two samples and snap frozen. A complete blood count, including hematocrit and hemoglobin levels, was assessed using an automated PCE-90 Vet hematology unit (HTI). FIG. 3 depicts the serum hemoglobin concentration after 14 days of oral dosing Compound 1 in mice with dextran sulfate sodium (DSS)-induced colitis. FIG. 4 depicts Endoscopy Colitis Scores in mice with dextran sulfate sodium (DSS)-induced colitis dosed via oral gavage with Compound 1, 6-thioguanine, or vehicle control once a day after 19 days.

[2] = Plasma drug concentrations after oral and intraperitoneal dosing (LC MS/MS); type: in vivo, male Balb/c mice; settings: male, Balb/c, mouse, read-out: blood levels; for concentration at 1 h: 1 h post dosing; for concentration at 6 h: 6 h post dosing
Method: as §3

TNBS-induced colitis = assay: Trinitrobenzene sulfonic acid (TNBS)-induced colitis model; type: in vivo, male SJL mice
Method: A study was conducted to determine the effects of Compound 1 compared to positive control prednisolone dosed by the oral (p.o.) route in trinitrobenzene sulfonic acid (TNBS)-induced colitis in male SJL mice (FIG. 5). The mice were divided into 5 groups. The mice were fasted for 12 to 16 hours prior to TNBS challenge. On day 0 of the study, mice in groups 2 through 5 were infused intrarectally (IR) with 50 μL TNBS solution (1.5 mg in 50% EtOH/PBS per mouse) to induce colitis. The mice in group 2 were dosed (PO) daily (QD) on days 0 to 3 with vehicle (0.5% HPMC, 0.1% Tween 80 in water). The mice in group 4 were dosed p.o. daily on days 0 to 3 with Compound 1 at 10 mpk, and the mice in group 5 were dosed p.o. daily on days 0 to 3 with Compound 1 at 30 mpk. Prednisone (group 3) was used as a positive control and was dosed p.o., QD on days 0 to 3. Group 1 served as naïve controls. On study day 4, the mice were anesthetized with Isoflurane, bled to exsanguination, and then euthanized for necropsy and tissue collection. Efficacy evaluation was based on animal body weight measurements, colon weights, colon lengths, colon weight per length ratios, histopathology of proximal and distal colons—evaluated as proximal only, distal only, or full colon (proximal and distal). Longitudinal sections of proximal and distal colon were stained with hematoxylin and eosin (H&E). Sections were analyzed using the criteria below and were scored for inflammation, gland loss, and mucosal necrosis. [table] [table] [table] [table] The histopathology sum score was calculated as a sum of inflammation, gland loss, erosion/necrosis (derived from the measure of total length vs. length of mucosal necrosis, i.e., percent), and hyperplasia scores.

[3] = IV/p.o. pharmacokinetic study in rat; type: in vivo, male Sprague Dawley rats
Method: Separate cohorts (n=3) of non-fasted male Sprague Dawley rats were administered Compound 1 at a dose of 1 mg/kg intravenously (IV) via tail vein, 5 mg/kg orally as a solution, or 5 mg/kg orally as a suspension. Blood samples were collected at 0.033 (IV only), 0.083 (IV only), 0.25, 0.5, 1, 2, 4, 8, and 24 hrs post dose after administration. Blood was harvested via the jugular vein catheter. Blood samples were collected into tubes containing K2EDTA and placed on wet ice. The plasma fraction was separated by centrifugation and frozen at −20 to −80 ° C. Concentrations of Compound 1 in plasma were determined using a qualified liquid chromatography-triple quadrupole mass spectrometry. FIG. 2 depicts the plasma concentration of Compound 1 in healthy male SD rats over 24 hours.
as §1, §2

[4] = Caco-2 cell monolayer permeability; type: in vitro ADME; settings: human, tested at 10 μM, read-out: apical-to-basolateral apparent permeability Papp
Method: In Caco-2 cell monolayers, Compound 1 had low apical-to-basolateral apparent permeability Papp value of <0.2×10^−6 cm/s when tested at 10 μM.

[5] = IV/p.o. pharmacokinetic study in dog; type: in vivo, male beagle dogs; settings: for bioavailability: male, beagle, po, p.o. suspension in 0.5% HPMC
Method: as §1, §2

[6] = 10 and 30 mg/kg p.o. QD days 0 to 3

For O=C(O)c1cnn(-c2nc3cc(S(=O)(=O)c4ccccc4)c(Cl)cc3[nH]2)c1 [Compound 1, 1-(6-chloro-5-(phenylsulfonyl)-1H-benzo[d]imidazol-2-yl)-1H-pyrazole-4-carboxylic acid], the “estimated fa*fg (fa: fraction absorbed; fg: fraction that escapes gut metabolism)” value [1] was no more than 0.12, the “terminal t1/2” value [1] was “short” and the bioavailability ([1]; male, cynomolgus monkey, plasma, po, p.o. suspension in 0.5% HPMC) was no more than 5%. For the same compound, the EPO stimulation (systemic EPO; 100 umol/kg i.p.) was 34 fold above vehicle control, the EPO stimulation (systemic EPO; 100 umol/kg p.o.) was “no EPO stimulation” and the “efficacy in mouse model of inflammatory bowel disease” value (DSS-induced colitis; p.o. dosing) was “excellent efficacy”. The “systemic pharmacology resulting in increases in EPO/hematocrit” value (DSS-induced colitis; p.o. dosing, mouse models of inflammatory bowel disease) was “no systemic pharmacology resulting in increases in EPO/hematocrit was observed”, the “Endoscopic Colitis Scores” value (DSS-induced colitis; p.o. q.d. Day 6 to 19, 3% DSS Day 0 to 5) was “effective at ameliorating DSS induced colitis” and the concentration at 1 h ([2]; ip, 100 umol/kg i.p.) was 42200 nM. It also gave a concentration at 6 h ([2]; ip, 100 umol/kg i.p.) of 5100 nM, a concentration at 1 h ([2]; po, 100 umol/kg p.o.) of 100 nM and a concentration at 6 h ([2]; po, 100 umol/kg p.o.) of 20 nM. For the same compound, the body weight loss (TNBS-induced colitis; [6]) was “statistically significant inhibition of body weight loss; also recorded: protects against body weight loss”, the colon histopathology (TNBS-induced colitis; [6]) was “improvements in colon histopathology” and the colon weight/length ratio (TNBS-induced colitis; [6]) was “decreased colon weight/length ratios; also recorded: improves colon weight/length ratio”. For the same compound, the “full-colon and proximal-colon histopathology” value (TNBS-induced colitis; 10 or 30 mpk p.o. QD days 0 to 3) was “significant beneficial effects”, the histopathology inflammation score (TNBS-induced colitis; p.o. QD days 0 to 3) was “improves the histopathology inflammation score” and the histopathology summed score (TNBS-induced colitis; p.o. QD days 0 to 3) was “improves the histopathology summed score”. For the same compound, the “efficacy in mouse model of inflammatory bowel disease” value (TNBS-induced colitis; p.o. dosing) was “excellent efficacy”, the “estimated fa*fg (fa: fraction absorbed; fg: fraction that escapes gut metabolism)” value [3] was no more than 0.12 and the “terminal t1/2” value [3] was “short”. For the same compound, the bioavailability ([3]; male, Sprague-Dawley, plasma, po, 5 mg/kg, p.o. dosing) was no more than 5%, the Papp A→B at 10 μM [4] was less than 0.2 ×10⁻⁶ cm/s and the “estimated fa*fg (fa: fraction absorbed; fg: fraction that escapes gut metabolism)” value [5] was no more than 0.12. For the same compound, the “terminal t1/2” value [5] was “short”, the bioavailability ([5]; in vivo) was no more than 5% and the bioavailability ([5]; plasma) was less than 5%.
